Counter-ions that a name gives are not always drawn.

For the assay, the target named is T1, PKBα (Homo sapiens, UniProt P31749).
T1 construct: fused on or other part: His6 tag is likely on the Upstate products
T1 sequence (P31749 118-472 limits assumed): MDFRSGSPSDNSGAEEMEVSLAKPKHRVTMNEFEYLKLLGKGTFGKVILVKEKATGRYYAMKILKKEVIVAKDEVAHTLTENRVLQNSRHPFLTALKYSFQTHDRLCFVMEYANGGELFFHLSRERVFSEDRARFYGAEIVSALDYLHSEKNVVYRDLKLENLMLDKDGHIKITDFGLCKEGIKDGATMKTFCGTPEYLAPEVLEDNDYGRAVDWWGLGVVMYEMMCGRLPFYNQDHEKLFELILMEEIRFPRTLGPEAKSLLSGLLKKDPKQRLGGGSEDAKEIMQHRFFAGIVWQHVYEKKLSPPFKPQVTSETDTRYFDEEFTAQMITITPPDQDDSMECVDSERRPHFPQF
The assay is described as follows: PKB kinase assay (P33-labeled ATP, peptide substrate, filter plate). Conditions: with respect to PKBα. The format is biochemical. An excerpt: The kinase assay for evaluating PKB activity comprises active PKB enzymes, a PKB specific substrate, and P^33-labeled ATP. Two form of PKBα enzymes were used, the full length PKBα and a kinase domain of PKBα with pleckstrin domain (amino acids 1-117) deleted. Both PKB enzymes were obtained from Upstate cell signaling solutions (Cat.# 14-276 and 14-341). The PKB substrate used is a synthetic peptide (ARKRERTYSFGHHA (SEQ ID NO: 1)) as described in Obata et al., J. Biol. Chem. 275 (46), 36108-36115 (2000). The phosphorylated substrate was captured by a phosphocellulose membrane filter plate (MILLIPORE) and measured by a Wallac Microbeta liquid scintillation counter (Perkin Elmer). Table 1 provides the IC50 values obtained for each of the examples with respect to PKBα.
As usually defined, the IC50 is the concentration that inhibits the measured activity by half. Low readings indicate inhibition by little substance, high ones a need for much substance. `N[C@H](CNc1nc(C(=O)NC2CC2)c(-c2ccc3cnc(F)cc3c2)s1)Cc1ccc(C(F)(F)F)cc1` [Example 23, 2-((S)-2-Amino-3-(4-(trifluoromethyl)phenyl)propylamino)-N-cyclopropyl-5-(3-fluoroisoquinolin-6-yl)thiazole-4-carboxamide] gave an IC50 of 1000 to 10000 nM.
Regarding `COCc1nc(NC[C@@H](N)Cc2ccc(C(F)(F)F)cc2)sc1-c1ccc2cnc(F)cc2c1` [Example 24, N—((S)-2-Amino-3-(4-(trifluoromethyl)phenyl)propyl)-5-(3-fluoroisoquinolin-6-yl)-4-(methoxymethyl)thiazol-2-amine], the IC50 was below 50 nM.
In the case of `N[C@H](CNc1ncc(-c2ccc3cnc(F)cc3c2)s1)Cc1cnc(C(F)(F)F)nc1` [Example 26, N—((S)-2-Amino-3-(2-(trifluoromethyl)pyrimidin-5-yl)propyl)-5-(3-fluoroisoquinolin-6-yl)thiazol-2-amine] it was below 50 nM; in that of `N[C@H](CNc1ncc(-c2ccc3cnc(F)cc3c2)s1)Cn1cnc(C(F)(F)F)c1` [Example 28, N—((R)-2-Amino-3-(4-(trifluoromethyl)-1H-imidazol-1-yl)propyl)-5-(3-fluoroisoquinolin-6-yl)thiazol-2-amine], 50 to 1000 nM.
Turning to `N[C@H](CNc1ncc(-c2ccc3cnc(F)cc3c2)s1)CN1CCCC(C(F)(F)F)C1` (stereo partly drawn) [Example 30, N—((R)-2-Amino-3-((3S)-(trifluoromethyl)piperidin-1-yl)propyl)-5-(3-fluoroisoquinolin-6-yl)thiazol-2-amine], the IC50 is 1000 to 10000 nM.
As for `N[C@H](CNc1ncc(-c2ccc3cnc(F)cc3c2)s1)Cc1ccc(C(F)(F)F)nc1Cl` [Example 31, N—((S)-2-Amino-3-(2-chloro-6-(trifluoromethyl)pyridin-3-yl)propyl)-5-(3-fluoroisoquinolin-6-yl)thiazol-2-amine], the IC50 was below 50 nM.
In the case of `COC[C@@H](c1ccc(C(F)(F)F)cc1)[C@H](N)CNc1ncc(-c2ccc3cnc(F)cc3c2)s1` [Example 32, N-((2S,3S)-2-Amino-4-methoxy-3-(4-(trifluoromethyl)phenyl)butyl)-5-(3-fluoroisoquinolin-6-yl)thiazol-2-amine] it was below 50 nM; in that of `CS(=O)(=O)C[C@@H](c1ccc(C(F)(F)F)cc1)[C@H](N)CNc1ncc(-c2ccc3cnc(F)cc3c2)s1` [Example 34, N-((2S,3S)-2-Amino-4-(methylsulfonyl)-3-(4-(trifluoromethyl)phenyl)butyl)-5-(3-fluoroisoquinolin-6-yl)thiazol-2-amine], 50 to 1000 nM; in that of `CC#Cc1nc(NC[C@@H](N)Cc2ccc(C(F)(F)F)nc2)sc1-c1ccc2cnc(F)cc2c1` [Example 35, N—((S)-2-Amino-3-(6-(trifluoromethyl)pyridin-3-yl)propyl)-5-(3-fluoroisoquinolin-6-yl)-4-(prop-1-ynyl)thiazol-2-amine], below 50 nM.
With `N[C@H](CNc1ncc(-c2ccc3cnc(F)cc3c2)s1)[C@@H](O)c1ccc(C(F)(F)F)cc1` [Example 37, (1S,2R)-2-Amino-3-((5-(3-fluoro-6-isoquinolinyl)-1,3-thiazol-2-yl)amino)-1-(4-(trifluoromethyl)phenyl)-1-propanol trifluoroacetate], the IC50 was below 50 nM.
For the compound `COCO[C@@H](c1ccc(C(F)(F)F)cc1)[C@H](N)CNc1ncc(-c2ccc3cnc(F)cc3c2)s1` [Example 39], the IC50 was below 50 nM.
The figure for `N[C@H](CNc1ncc(-c2ccc3cnc(F)cc3c2)s1)Cc1cnc(F)c(Cl)c1` [Example 40, N—((S)-2-Amino-3-(5-chloro-6-fluoropyridin-3-yl)propyl)-5-(3-fluoroisoquinolin-6-yl)thiazol-2-amine] is 50 to 1000 nM.
In turn, `CC(C)(C)OC(=O)N[C@@H](Cc1ccc(C(F)F)cc1)CN(C(=O)OC(C)(C)C)c1ncc(-c2ccc3cnc(F)cc3c2)s1` [Example 41, tert-Butyl ((2S)-2-((tert-butoxycarbonyl)amino)-3-(4-(difluoromethyl)phenyl)propyl)(5-(3-fluoro-6-isoquinolinyl)-1,3-thiazol-2-yl)carbamate] yielded an IC50 of 1000 to 10000 nM.
The figure for `N[C@H](CNc1ncc(-c2ccc3cnc(F)cc3c2)s1)Cc1ccc(C(F)F)cc1` [Example 42, (2S)-3-(4-(difluoromethyl)phenyl)-N-1-(5-(3-fluoro-6-isoquinolinyl)-1,3-thiazol-2-yl)-1-2-propanediamine trifluoroacetate] is below 50 nM; for `N[C@H](CNc1ncc(-c2ccc3cnc(F)cc3c2)s1)Cc1ccc2c(c1)OCCO2` [Example 43, N—((S)-2-Amino-3-(2,3-dihydrobenzo[b][1,4]dioxin-6-yl)propyl)-5-(3-fluoroisoquinolin-6-yl)thiazol-2-amine] it is below 50 nM; for `COC(=O)c1ccc(C[C@H](N)CNc2ncc(-c3ccc4cnc(F)cc4c3)s2)cc1` [Example 45] it is 50 to 1000 nM.
The figure for `Cn1ccc(C[C@H](N)CNc2ncc(-c3ccc4cnc(F)cc4c3)s2)cc1=O` [Example 46] is 50 to 1000 nM.
In the case of `N[C@@H](CNc1ncc(-c2ccc3cnc(F)cc3c2)s1)Cc1ccc(C(F)(F)F)nc1` [Example 47, (2R)—N^1-(5-(3-Fluoro-6-isoquinolinyl)-1,3-thiazol-2-yl)-3-(6-(trifluoromethyl)-3-pyridinyl)-1,2-propanediamine] it was 1000 to 10000 nM; in that of `N[C@H](CCc1ncc(-c2ccc3cnc(F)cc3c2)s1)Cc1ccc(C(F)(F)F)cc1` [Example 48, (2R)-4-(5-(3-Fluoroisoquinolin-6-yl)thiazol-2-yl)-1-(4-(trifluoromethyl)phenyl)butan-2-amine], 1000 to 10000 nM.
On to `COCc1nc(CC[C@@H](N)Cc2ccc(C(F)(F)F)nc2)sc1-c1ccc2cnc(F)cc2c1` [Example 49, (2R)-4-(5-(3-Fluoroisoquinolin-6-yl)-4-(methoxymethyl)thiazol-2-yl)-1-(6-(trifluoromethyl)pyridin-3-yl)butan-2-amine], for which the concentration for half-maximal inhibition (IC50) is below 50 nM.

Source of the values: patent US20110263647A1 (AMGEN INC., priority 2009, published 2011).
